Data on six molecules can be found in US9695481B2, “Polynucleotides comprising a reporter sequence operatively linked to a regulatory element” (UNIVERSITEIT LEIDEN, priority 2010, dated 2017).

Molecules are shown by their SMILES. Structures can show the parent of a compound that is named as a salt.

The subject of series [1] is Bscl2-GFP mES reporter cells.
The subject of series [2] is Bscl2-GFP and Srxn1-GFP mES reporter cells.
Series [3] has as its system Srxn1-GFP mES reporter cells.
The test system of series [4] is mouse ES cell lines containing a DsRed fluorescent reporter.
Series [5] shares this test system. The note with it: Hendriks et al. 2011; cited from earlier work.
In series [6] the test system is Srxn1-GFP mES reporter cells. Description: Srxn1-GFP oxidative stress reporter. Particulars: 100 uM DEM, live cell imaging.
For series [7], the system named is Bscl2-GFP mES reporter cells. Description: Bscl2-GFP genotoxicity reporter. The note with it: 10 uM CisPt or 1.5 uM Aph, 24 h, flow cytometry. In general terms: In flow cytometry, cells or beads pass a laser one at a time.
For series [8], the system named is ATM and ATR signaling pathways (phospho-Kap1, phospho-Chk1, phospho-p53). The series is classed as cell-based, mouse. Particulars: Western blot, 24 h. How it is done: Mouse ES cells were propagated on irradiated primary mouse embryonic fibroblasts as feeders according to established protocols. […] For analysis of compounds that require metabolic activation, cells were exposed for 3 h in the presence of 1% S9 rat liver extract in 3.2 mM KCl, 0.8 mM MgCl2, 0.5 mM glucose-6-phosphate and 0.4 mM NADP.
Activation of the ATM and ATR signaling pathways in response to CisPt and Aph was determined by Western blot analysis. […] Proteins were transferred to PVDF membrane (Millipore) and detected using antibodies against phospho-Kap1 (Bethyl laboratories), phospho-Chk1 (Bethyl laboratories), phospho-p53 (Cell signaling) or Hprt (Santa Cruz) as protein loading control. Proteins were visualized using enhanced chemoluminescence (ECL).
A general note: Immunoblotting shows a protein as a band on a membrane.

On to `O=S(=O)([O-])[O-].[Cu+2]` [Copper sulfate], for which the Bscl2-GFP reporter induction result in series [1] was “not induced”. In addition, in series [2], the “Bscl2-GFP/Srxn1-GFP GFP Induction” value is listed as “Pos. (key: Pos.: considered positive when exposure to at least two different concentrations of a compound resulted in >1.5 fold induction of GFP expression)”; the “Bscl2-GFP/Srxn1-GFP Prim. toxic properties” value was “Pro-oxidant”; the “GFP expression in Srxn1, Bscl2 and Btg2 GFP reporter cell lines” value is reported as “increased”. For the same molecule, in series [3], the Srxn1-GFP reporter induction result is on record as “strong, concentration-dependent increase in expression of the GFP reporter”.
For the molecule `CCOC(=O)/C=C\C(=O)OCC` [Diethyl maleate], the DsRed reporter expression/activation entry in series [4] is reported as “clear induction of DsRed expression”. In addition, the “mES DsRed reporters” value in series [5] was “Pos”. Further, in series [2], the “Bscl2-GFP/Srxn1-GFP Prim. toxic properties” value is on record as “Pro-oxidant”; the “GFP expression in Srxn1, Bscl2 and Btg2 GFP reporter cell lines” value is “increased”. Further, in series [3], the “Srxn1-GFP reporter induction (mRNA)” value was “highly induced”. Also, in series [6], the “exposure time after which Srxn1-GFP expression reached a plateau” value is on record as 24 h and the “exposure time after which Srxn1-GFP expression was clearly detectable” value was found to be 8 h.
In the case of `NC(=O)NO` [HU, Hydroxyurea], the Bscl2-GFP reporter induction entry in series [1] was “significant induction of GFP expression”. In addition, the Srxn1-GFP reporter induction entry in series [3] is “slight reporter activation”.
`O=P1(N(CCCl)CCCl)NCCCO1` (centres unmarked) [cyclophosphamide]: the “survival of Bscl2-GFP reporter cells after S9-dependent activation” value in series [1] is reported as “reduced survival”. Moreover, in series [1] (mouse), the “Bscl2-GFP reporter induction with metabolic activation” value is listed as “induced expression of the Bscl2-GFP reporter only when incubated in the presence of rat S9 mix”.
With `O=c1cc(-c2cccc3c2Sc2ccccc2S3)oc(N2CCOCC2)c1` [ku55933], the “effect on Bscl2-GFP reporter activation by CisPt or Aph” value in series [7] is “unaffected”. Moreover, the “effect on phosphorylation of Kap1, Chk1 and p53 in response to CisPt and Aph” value in series [8] is “prevented phosphorylation of Kap1 and p53”.
Consider `COc1cc2c(c(OC)c1OC)-c1c(cc3c(c1OC)OCO3)CC(C)C(C)C2` (centres unmarked) [schisandrin B], for which, in series [7], the “effect on Bscl2-GFP reporter activation by CisPt or Aph” value was “almost completely be repressed”. Moreover, the “effect on phosphorylation of Kap1, Chk1 and p53 in response to CisPt and Aph” value in series [8] is “diminished Chk1 and p53 phosphorylation”.
